{"source": "paper PMC11063393", "about": "(Heliyon, 2024)", "target": "tyrosinase", "experiment": "absorbance at […] nm, L-DOPA oxidation", "assay_type": "biochemical", "details": "L-DOPA […] stock, […] phosphate, pH […] °C, […] min preincubation", "data": [{"smiles": "O=c1c(O)c(-c2ccc(O)c(O)c2)oc2cc(O)cc(O)c12", "note": "[Quercetin]", "values": [{"measurement": "Control (Quercetin) / IC50 (μg/mL)s", "value": "22.15 ± 0.12", "unit": "µg/mL"}]}]}
